Measurements taken from US5310749A, “Antiprotozoal composition containing a 2-nitroimidazole derivative and method thereof” (Pola Chemical Industries Inc., priority 1991, dated 1994).

Columns and labels:
[1] = tested on: Trypanosoma cruzi (Tulahuen Strain); test: Deaths and presence of protozoa in infected ICR mice, compound 1) with or without anionic copolymer (Example 5); assay type: in vivo, Trypanosoma cruzi (Tulahuen Strain) in ICR male mice
Protocol: Five groups (Groups 1 to 5) of four week old ICR male mice, each group consisting of 3 mice, were provided. Group 2 and Group 5 mice were given 4.4 mg of acrylic acid-diisobutylvinyl ether copolymer (monomer ratio=1:1, average molecular weight=1.29×10^5) as dissolved in a 0.2 ml saline. On the second day, all animals were intraperitoneally given Trypanosoma cruzi (Tulahuen Strain) in the number of 40,000 for each. On the fifth, sixth, seventh, eighth and ninth day of the administration of the Tripanosoma, Group 1 and Group 2 mice were given saline, and Group 3 and Group 5 mice were given compound 1) (200 mg/kg) as dissolved in saline. Group 4 mice were intraperitoneally given 4.4 mg of acrylic acid-diisobutyl vinyl ether copolymer (monomer ratio=1:1, average molecular weight=1.29×10^5) and compound 1) (200 mg/kg) on the fifth day of the administration of the Trypanosoma, and on the sixth, seventh, eighth and ninth day of the administration, compound 1) (200 mg/kg) was intraperitoneally administered. Observation was continued until 60 th day of administration of Trypanosoma. The mice which were alive on the 60th day were killed and dissected to check the presence or absence of the protozoa in blood, the heart and in the liver under microscope.

Trypanosoma cruzi [2] = test: Anti-protozoan action 1 (in vitro), T. cruzi-infected A204 cells; assay type: cell-based; set-up: key: +++: same number of protozoa alive as control; ++: slightly less number alive than control; +: less number alive than control; ±: only a few alive; -: all dead; conditions: A204 cells infected with T. cruzi, 37° C., 24 hours
Protocol: A204 cells (derived from a […]), which had been infected in advance with Trypanosoma cruzi and maintained by subculture at 37° C., were cultured in a 24-well plate for tissue culture. The protozoa in the number of about 10^5 were confirmed to be present. After the cells were treated with 50 μmol, 100 μmol and 500 μmol of compounds 1) to 3), they were cultured at 37° C. for 24 hours. Life and death of the protozoa was observed under microscope and scored. The medium used was Dulbecco Modified Eagle Medium manufactured by Dainihon-Seiyaku K. K. added with 10% bovine serum. Control was free of any of compounds 1 to 3).

[3] = tested on: Trypanosoma cruzi (Tulahuen strain); test: Anti-protozoan action (in vivo), survival of infected C3H/Hecrj mice (Example 4); set-up: species or system Trypanosoma cruzi (Tulahuen strain) in male C3H/Hecrj mice; conditions: 200 mg/kg on days 4-8; 200,000 T. cruzi i.p.; 4 mice; control 12 days
Protocol: Trypanosoma cruzi (Tulahuen strain) in the number of 200,000 was intraperitoneally administered to a group of 5 week old male C3H/Hecrj mice. At each of fourth, fifth, sixth, seventh and eighth day of the administration, 200 mg/kg of compound 1) was given to the mice. Control group was given saline solution instead of compound 1). The anti-protozoaneffect of compound 1) was determined based on the days of survival of the mice.

[4] = tested on: Trypanosoma cruzi (Tulahuen strain); test: Anti-protozoan action (in vivo), survival of infected ICR mice (Example 3); set-up: species or system Trypanosoma cruzi (Tulahuen strain) in male ICR mice; conditions: 200 mg/kg on days 5-9; 400,000 T. cruzi i.p.; all of 3 mice; control 14-15 days
Protocol: Trypanosoma cruzi (Tulahuen strain) in the number of 400,000 was intraperitoneally administered to a group of 4 week old male ICR mice. At each of fifth, sixth, seventh, eighth and ninth day of the administration,200 mg/kg of compound 1) was given to the mice. Control group was given saline solution instead of compound 1). The anti-protozoan effect of compound 1) was determined based on the days of survival of the mice.

Acute toxicity = conditions: mouse, in vivo, ip
Source text: ICR mice were intraperitoneally administered with compound 1) for the acute toxicity test. Observation was continued for 14 days after the administration.

Trypanosoma cruzi [5] = test: Anti-protozoan action 2 (in vitro), T. cruzi culture in GIT medium; assay type: cell-based; set-up: key: +++: same number of protozoa alive as control; ++: slightly less number alive than control; +: less number alive than control; ±: only a few alive; -: all dead; conditions: GIT medium (serum-free), 27° C., 120 hours
Protocol: Trypanosoma cruzi was cultured at 27° C. in a GIT medium (serum-free medium) manufactured by Nippon Seiyaku K. K. which was modified to contain […] of hemine. 50 μmol, 100 μmol, 250 μmol and 500 μmol of each of compounds 1) to 3) were added thereto. 120 hours later, life or death of the protozoa was observed under microscope and scored according to the criteria in Example 1. Control was free of any of compounds 1) to 3).

[6] = ICR mice, intraperitoneal, observation 14 days

SMILES | Number of Dead Samples ([1]; Group 3: compound 1) 200 mg/kg on days 5-9) | death in the groups given compound 1) ([1]; Group Nos. 3, 4 and 5) | Life and death of the protozoa, score (Trypanosoma cruzi [2]; 50 μmol) | Life and death of the protozoa, score (Trypanosoma cruzi [2]; 100 μmol) | Life and death of the protozoa, score (Trypanosoma cruzi [2]; 500 μmol) | days of survival of the mice [3] | days of survival of the mice [4] | LD50 at 336 h (Acute toxicity) | Life or death of the protozoa, score (Trypanosoma cruzi [5]; 50 μmol) | Life or death of the protozoa, score (Trypanosoma cruzi [5]; 100 μmol) | Life or death of the protozoa, score (Trypanosoma cruzi [5]; 250 μmol) | Life or death of the protozoa, score (Trypanosoma cruzi [5]; 500 μmol) | LD50 at 336 h (Acute toxicity; [6])
O=[N+]([O-])c1nccn1COCC=CCO [Compound 1)] | 0 | no death | ± | - | - | more than 20 days | more than 50 days | 830 mg/kg | ++ | ++ | + | - | 
O=[N+]([O-])c1nccn1[C@H]1O[C@H](CO)[C@@H](O)[C@H]1O [Compound 3)] |  |  | ++ | ++ | + |  |  |  | +++ | +++ | +++ | + | > 5000 mg/kg
O=[N+]([O-])c1nccn1COC(CO)CO [Compound 2)] |  |  | ++ | ++ | - |  |  |  | +++ | +++ | +++ | +++ | 4300 mg/kg
